Test results taken from PubChem BioAssay AID2060600 (Molecular Pharmacology Branch, DTP, NCI, 2025).

System: 996289-038-R-J1-PDC complex spheroid viability
Experiment: Anticancer human tumor 996289-038-R-J1-PDC patient-derived colon adenocarcinoma cell line growth inhibition [CLK]
Conditions: for IC50: curve of first compound; for viability, T/C: stronger effect = lower value
Text: A high-throughput screen of multi-cell type tumor spheroids was designed to identify active combinations of […] and targeted small molecules. Complex spheroids include a stromal component modeled by human endothelial cells (HUVEC) and fibroblasts modeled by human mesenchymal stem cells (MSCs). The concentration ranges selected for each drug and investigational agent were based upon clinically achievable concentrations if the clinical Cmax of the agent was known.
Compounds. The drugs and investigational agents: cirtuvivint (SM08502; NSC835563), CC-671 (NSC850746), vemurafenib (NSC761431), tapotoclax (NSC804041), sotorasib (NSC818433), adagrasib (NSC831453), MRTX-1133 (NSC836407), BAY2416964 (NSC825713), copanlisib (NSC816437), inavolisib (NSC800729), abemaciclib (NSC768073), osimertinib (NSC779217), entinostat (NSC756642), eltanexor (KPT-8602, NSC794443), venetoclax (NSC766270), ceralasertib (NSC777638), bortezomib (NSC756655), olaparib (NSC753686), talazoparib (NSC767125), alisertib (NSC759677), peposertib (NSC802822), gemcitabine (NSC613327), 5-fluorouracil (NSC19893), SN-38 (NSC673596), oxaliplatin (NSC266046), paclitaxel (NSC125973), and doxorubicin (NSC123127), were obtained from the National Cancer Institute (NCI) Developmental Therapeutics Program Chemical Repository. The FDA-approved anticancer drug set is available from the Developmental Therapeutics Program at https://dtp.cancer.gov/organization/dscb/obtaining/available plates.htm. […] The stock solutions were prepared in dimethyl sulfoxide (DMSO, Sigma-Aldrich, St. Louis, MO, cat. D2650), except for the platinum complexes which were prepared in saline (Quality Biological, Gaithersburg, MD, cat. 114-055-101), at 800-fold the tested concentration and stored at -70 degrees C prior to their use. All drugs and investigational agents were tested over a range starting from a high concentration at or near the clinical Cmax and decreasing in half-log increments. If the clinical Cmax for an agent had not been determined, the highest concentration tested was 10 microM.
Cell Culture. All cells were maintained in an incubator at 37 degrees C and 5% CO2 with 95% humidity. The PDC lines were cultured according to standard operating procedures established by the NCI PDMR. Briefly, all PDCs were thawed and cultured in Matrigel-coated flasks prepared with a working solution of 1X Ham's F-12 nutrient mix, without supplementation (Invitrogen, Waltham, MA, cat. 11765054), 100 U/mL penicillin-streptomycin (Invitrogen, cat. 15140122), and 2.5% Matrigel (Corning Inc., Corning, NY, cat. 354248) for the first three passages. The 947758-054-R-J2-PDC line was cultured in 6B/Colon 1A media, which includes advanced DMEM/F-12 (Thermo Fisher Scientific, cat. 12634028), 10 mM HEPES (Thermo Fisher Scientific, cat. 15630080), 1X GlutaMAX supplement (Thermo Fisher Scientific, cat. 35050061), 0.1 mg/mL primocin (InvivoGen, cat. ant-pm-2), 10% defined fetal bovine serum, heat inactivated (HyClone Laboratories Inc., cat. SH30070.03HI), 1.25 mM N-Acetyl-L-cysteine (Sigma-Aldrich, cat. A9165), 10 mM nicotinamide (Sigma-Aldrich, cat. N0636), 1X B-27 supplement (Thermo Fisher Scientific, cat. 17504044), 1X N-2 supplement (Thermo Fisher Scientific, cat. 17502048), and 10 microM Y-27632 dihydrochloride (Tocris Bioscience, cat. 1254). The 876862-298-R-J1-PDC was cultured in 6E media, which includes all 6B/Colon 1A media components plus 50% L-WRN conditioned media (ATCC, cat. CRL-3276), 50 ng/mL recombinant human EGF recombinant protein (hEGF; Thermo Fisher Scientific, cat. PHG0311), 10 ng/mL recombinant human fibroblast growth factor 10 (hGFG-10; PeproTech, cat. 100-26), 1 ng/mL recombinant human fibroblast growth factor 2 (hFGF-2; PeproTech, cat. 100-18B), and 1 µM prostaglandin E2 (PGE2; Tocris, cat. 2296). The 227483-062-R1-J1-PDC line was cultured in Panc media, containing all 6E components except hFGF-2, with the addition of 500 nM SB-431542 (Selleckchem, cat. S1067) and 10 nM gastrin (Tocris, cat. 3006). […]
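Note: spheroids exposed to the agents for 7 days before readout.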

- IC50 (second compound 0.0316 µM): > 0.1 µM
- IC50 (second compound 0.1 µM): > 0.1 µM
- IC50 (second compound 0.316 µM): > 0.1 µM
- IC50 (second compound 1 µM): > 0.1 µM
- IC50 (second compound 3.16 µM): > 0.1 µM
- IC50 (second compound 10 µM): > 0.1 µM
Structure (SMILES): Cn1ncnc1[C@H]1c2n[nH]c(=O)c3cc(F)cc(c23)N[C@@H]1c1ccc(F)cc1 + CNC(=O)c1ccc(Nc2nc(OC3CCCC3)c3c(-c4ccc5nc(C)oc5c4)c[nH]c3n2)c(OC)c1
- viability, T/C (second compound 0.0316 µM, first compound 0.000316 µM): 127%
- viability, T/C (second compound 0.0316 µM, first compound 0.001 µM): 114%
- viability, T/C (second compound 0.0316 µM, first compound 0.00316 µM): 118%
- viability, T/C (second compound 0.0316 µM, first compound 0.01 µM): 124%
- viability, T/C (second compound 0.0316 µM, first compound 0.0316 µM): 133%
- viability, T/C (second compound 0.0316 µM, first compound 0.1 µM): 108%
- viability, T/C (second compound 0.1 µM, first compound 0.000316 µM): 127%
- viability, T/C (second compound 0.1 µM, first compound 0.001 µM): 124%
- viability, T/C (second compound 0.1 µM, first compound 0.00316 µM): 128%
- viability, T/C (second compound 0.1 µM, first compound 0.01 µM): 134%
- viability, T/C (second compound 0.1 µM, first compound 0.0316 µM): 124%
- viability, T/C (second compound 0.1 µM, first compound 0.1 µM): 105%
- viability, T/C (second compound 0.316 µM, first compound 0.000316 µM): 86.6%
- viability, T/C (second compound 0.316 µM, first compound 0.001 µM): 80.5%
- viability, T/C (second compound 0.316 µM, first compound 0.00316 µM): 81.6%
- viability, T/C (second compound 0.316 µM, first compound 0.01 µM): 78.8%
- viability, T/C (second compound 0.316 µM, first compound 0.0316 µM): 80.9%
- viability, T/C (second compound 0.316 µM, first compound 0.1 µM): 74.9%
- viability, T/C (second compound 1 µM, first compound 0.000316 µM): 74.8%
- viability, T/C (second compound 1 µM, first compound 0.001 µM): 67.4%
- viability, T/C (second compound 1 µM, first compound 0.00316 µM): 65.7%
- viability, T/C (second compound 1 µM, first compound 0.01 µM): 64%
- viability, T/C (second compound 1 µM, first compound 0.0316 µM): 65.5%
- viability, T/C (second compound 1 µM, first compound 0.1 µM): 58.6%
- viability, T/C (second compound 3.16 µM, first compound 0.000316 µM): 63.7%
- viability, T/C (second compound 3.16 µM, first compound 0.001 µM): 59.3%
- viability, T/C (second compound 3.16 µM, first compound 0.00316 µM): 59%
- viability, T/C (second compound 3.16 µM, first compound 0.01 µM): 58.5%
- viability, T/C (second compound 3.16 µM, first compound 0.0316 µM): 63.7%
- viability, T/C (second compound 3.16 µM, first compound 0.1 µM): 55%
- viability, T/C (second compound 10 µM, first compound 0.000316 µM): 66.1%
- viability, T/C (second compound 10 µM, first compound 0.001 µM): 60.4%
- viability, T/C (second compound 10 µM, first compound 0.00316 µM): 59.7%
- viability, T/C (second compound 10 µM, first compound 0.01 µM): 63%
- viability, T/C (second compound 10 µM, first compound 0.0316 µM): 63%
- viability, T/C (second compound 10 µM, first compound 0.1 µM): 55.7%
